Experiments:
p53 [1] = experiment: Immunoblotting of p53 and phosphorylated p53 in MM cells; type: cell-based
Method: (§1) MM cells were harvested and lysed using RIPA-lysis buffer (Boston Bioproducts, Ashland, Mass.) containing 5 mM EDTA, 5 mM NaF, 2 mM Na3VO4, 1 mM PMSF, 5 μg/ml leupeptin, and 5 μg/ml aprotinin. Nuclear proteins were extracted using “Nuclear Extraction Kit” (Affimetrix). After the determination of protein concentration using DC protein assay (Bio-Rad, Hercules, Calif.), β-mercaptoethanol (-ME) was added to the whole-cell lysates to a 2% final concentration. The whole cell lysates or nuclear extracts were subjected to SDS-PAGE, transferred to nitrocellulose membranes (Bio-Rad, Hercules, Calif.) or polyvinylidene fluoride membranes (Millipore, Billerica, Mass.), and immunoblotted with indicated Abs. Silver staining was carried out using “SilverQuest Staining Kit®” (Invitrogen), according to manufacturer's protocol.

hTERT [2] = experiment: hTERT expression and telomerase activity (TeloTAGGG Telomerase PCR ELISA); type: cell-based; conditions: MM.1S cells and H929 cells
Method: as §1
Telomerase activity in MM.1S and H929 cells was assessed by “TeloTAGGG Telomerase PCR ELISA®” from Roche Applied Science (Mannheim, Germany).

Chk1, ATM, ATR, Chk2 = experiment: Immunoblotting of DNA damage kinase phosphorylation; type: cell-based; conditions: MM.1S cells, 48 h
Method: as §1

RRM1, p18CDKN2C = experiment: RRM1 and p18CDKN2C expression (RT-qPCR, Western blot); type: cell-based; conditions: H929 cells
Method: as §1
(§2) RNA was extracted using Trizol (Invitrogen) and quantified by a Nanodrop spectrophotometer (Labtech). Specifically, 5×10^6 cells were pelleted, washed with cold PBS, and resuspended in 1 mL Trizol. They were then incubated with 1-Bromo-3-chloropropane (Sigma), washed first with Isopropyl alcohol and then with 75% Ethanol, and resuspended in Nuclease Free-water (Invitrogen). After quantification, 2000 ng of RNA was used to synthesize cDNA via the Superscript II First strand synthesis Kit (Invitrogen), according to the manufacturer's instructions. To evaluate the expression levels of TP53RK, BCL2L11, MYC, Bim, E2F1, TP53, IKZF1, IKZF3, RRM1, p18CDKN2C, PSMB5, PSMB7, PSMA3 and GAPDH, quantitative real time PCR (QRT-PCR) was performed using SYBR GREEN PCR Master Mix (Applied Biosystem), after optimization of the primer conditions. cDNAs were diluted 1:100 or 1:1000 and amplified in a 20 μL reaction. Primers were used at 200 nM or 400 nM concentration. Thermal cycling conditions were: 10 minutes at 95° C., 40 cycles at 95° C. for 15 seconds, followed by 1 minute at 60° C. Real-time quantitative PCR was performed on ABI Prism 7300 Sequence Detection System (Applied Biosystems). Data were analyzed using the delta delta Ct method. GAPDH was used as an invariant control.

p53 [3] = experiment: p53 DNA binding activity assay; type: cell-based; conditions: MM.1S and H929 cells, 48 h
Method: E2F1 DNA binding activity was assessed by electrophoretic mobility shift assay (EMSA) using “EMSA Gel Shift Kit®” from Affimetrix (Santa Clara, Calif.), and p53 DNA binding activity was performed using “p53 Transcription Factor Assay Kit®” from Cayman Chemical (Ann Arbor, Mich.). Experiments were carried out according to manufacturer's protocols.

p53 target genes = experiment: GEP analysis of patient MM cells before and after lenalidomide treatment; type: in vivo, human; conditions: patient MM cells treated with Len; *p < 0.05
Description: Expression data for plasma cells from healthy donors, monoclonal gammopathy of undetermined significance (MGUS), and smoldering myeloma (SMM) were derived from GSE5900 dataset, while expression data from normal plasma cells and 65 MM patients were obtained from GSE4452 dataset, using expression profiling on Affymetrix GeneChip (t test, unpaired, equal variance). […] Data were then normalized and analyzed using D-chip software, seeking statistically significant differences among groups or in p53-target gene expression. Statistical significance was determined by Student t test. The minimal level of significance was P<0.05. […] Gene set enrichment analysis (GSEA) was performed as previously described (2) (GSEA v2.0 at http://www.broad.mit.edu/gsea) using gene set as permutation type, as well as 1,000 permutations and signal to noise as metrics for ranking genes.

[4] = tested on: LC3-II, Bim, PARP, MDM2, XIAP, cIAP, p-p70S6K; experiment: Immunoblotting/qPCR of autophagy and apoptosis proteins in MM cells; type: cell-based; conditions: MM.1S cells, 2.5 μM, 48 h
Method: as §1, §2

hTERT [5] = experiment: Comparative hTERT expression analysis in matched MM patient samples (GSE8546); type: in vivo, human; conditions: matched samples before and after Len, GSE8546 dataset
E2F1 = E2F1 DNA binding activity (EMSA), protein and mRNA; type: cell-based; conditions: MM cells
Method: MM cells were harvested and lysed using RIPA-lysis buffer (Boston Bioproducts, Ashland, Mass.) containing 5 mM EDTA, 5 mM NaF, 2 mM Na3VO4, 1 mM PMSF, 5 μg/ml leupeptin, and 5 μg/ml aprotinin. Nuclear proteins were extracted using “Nuclear Extraction Kit” (Affimetrix). After the determination of protein concentration using DC protein assay (Bio-Rad, Hercules, Calif.), β-mercaptoethanol (-ME) was added to the whole-cell lysates to a 2% final concentration. […]
RNA was extracted using Trizol (Invitrogen) and quantified by a Nanodrop spectrophotometer (Labtech). […] After quantification, 2000 ng of RNA was used to synthesize cDNA via the Superscript II First strand synthesis Kit (Invitrogen), according to the manufacturer's instructions. To evaluate the expression levels of TP53RK, BCL2L11, MYC, Bim, E2F1, TP53, IKZF1, IKZF3, RRM1, p18CDKN2C, PSMB5, PSMB7, PSMA3 and GAPDH, quantitative real time PCR (QRT-PCR) was performed using SYBR GREEN PCR Master Mix (Applied Biosystem), after optimization of the primer conditions. cDNAs were diluted 1:100 or 1:1000 and amplified in a 20 μL reaction. […] Real-time quantitative PCR was performed on ABI Prism 7300 Sequence Detection System (Applied Biosystems). Data were analyzed using the delta delta Ct method. […]

MM cells = experiment: Growth inhibition assay (MTT) / viable cell count (Trypan-blue); type: cell-based
Method: Cell growth was assessed by measuring 3-(4,5-dimethylthiazol-2-yl)-2,5-diphenyl […] bromide (MTT, Chemicon International, Temecula, Calif.) dye absorbance. Cells were pulsed with 10 μl of 5 mg/ml MTT to each well for the last 4 h of 48 h and/or 72 h cultures, followed by 100 μl isopropanol containing 0.04N HCl. Absorbance was measured at 570/630 nm using a spectrophotometer (Molecular Devices Corp., Sunnyvale Calif.).

Nc1cccc2c1CN(C1CCC(=O)NC1=O)C2=O (stereo not drawn) [Len, lenalidomide]
p53 phosphorylation at Ser20 and Ser37 (p53 [1]; MM.1S cells, 2.5 μM, 48 h): no change | phosphorylated (p-Ser15)-p53 and p53 levels (p53 [1]; MM.1S cells, 2.5 μM, 48 h): downregulated | Nut3-induced upregulation of p-p53 and p53 (p53 [1]; MM.1S cells, Len or Pom 2.5 μM with Nutlin-3a 0.5 μM, 48 h): inhibited | p-p53/p53 downregulation (p53 [1]; nuclear extracts from MM.1S and H929 cell lines, patient MM cells): further confirmed | hTERT expression (hTERT [2]): significantly inhibited | telomerase (hTERT) activity (hTERT [2]): significantly inhibited | phosphorylation of ATM, ATR or Chk2 (Chk1, ATM, ATR, Chk2): not | phosphorylation of Chk1 (Chk1, ATM, ATR, Chk2): inhibited | RRM1 expression (RRM1, p18CDKN2C): downregulate | p18CDKN2C expression (RRM1, p18CDKN2C): upregulate | p53 activity (p53 DNA binding) (p53 [3]): block | BID expression change (p53 target genes): ↓ | CCNA1 expression change (p53 target genes): ↓ | CCNA2 expression change (p53 target genes): ↓ | CCNE2 expression change (p53 target genes): ↓ | CCNG1 expression change (p53 target genes): ↓ | CCR5 expression change (p53 target genes): ↓ | CDC25B expression change (p53 target genes): ↑ | CDKN3 expression change (p53 target genes): ↓ | CTSL2 expression change (p53 target genes): ↑ | CUL1 expression change (p53 target genes): ↓ | DDX3X expression change (p53 target genes): ↑* | DDX11 expression change (p53 target genes): ↓ | DLEC1 expression change (p53 target genes): ↓ | FGFR3 expression change (p53 target genes): ↓ | HLA-C expression change (p53 target genes): ↑ | ILR6 expression change (p53 target genes): ↓ | ITM2B expression change (p53 target genes): ↑* | JUND expression change (p53 target genes): ↓ | KRAS expression change (p53 target genes): ↑* | LAPTM5 expression change (p53 target genes): ↑ | MAP2K6 expression change (p53 target genes): ↓* | MKI67 expression change (p53 target genes): ↓ | MSX1 expression change (p53 target genes): ↓ | MYBL2 expression change (p53 target genes): ↓* | MYC expression change (p53 target genes): ↓ | RAD21 expression change (p53 target genes): ↑ | RAD51C expression change (p53 target genes): ↓ | RHOH expression change (p53 target genes): ↑* | RRM1 expression change (p53 target genes): ↓* | RRM2 expression change (p53 target genes): ↓* | SEC61A1 expression change (p53 target genes): ↑* | SMC4 expression change (p53 target genes): ↑ | STAT3 expression change (p53 target genes): ↑ | TEAD3 expression change (p53 target genes): ↓ | UBC expression change (p53 target genes): ↑* | XPC expression change (p53 target genes): ↑ | ZNF330 expression change (p53 target genes): ↓ | LC3-II level [4]: upregulation | hTERT levels in MM patient samples after treatment (hTERT [5]): lower | E2F1 (E2F1): increases | drug-triggered growth inhibition in kinase-dead D163A TP53RK transfectants (MM cells; H929 cells, 48 h): abrogated | sensitivity of MM cell lines to drug (MM cells; MM.1S and H929 cells with wt-p53 versus cell lines with mutant p53): more sensitive | drug-triggered cell death after CRBN knock-down (MM cells; OPM2 cells (mutant p53) and H929 cells (wt-p53)): only partially abrogates

Source: patent US10302644B2, “Compositions and methods for treating multiple myeloma” (Dana-Farber Cancer Institute, Inc., priority 2014, dated 2019)
